The compounds below were run on Phosphorylation of STAT6 in human PBMC (CD19+ B cells) (assay: Phosphorylated STAT6 (pSTAT6) flow cytometry assay in human PBMC, IL-4 stimulated). Conditions: compound 1 hour, 1 ng/ml IL-4 for 15 minutes, read-out: STAT6 IL4 pSTAT6 assay in PBMC: Average IC50.
Type: cell-based
In short: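 Human PBMC preincubated 1 h at 37 °C with compound (9-point 1:3 series, top up to 30 μM), then stimulated with 1 ng/ml IL-4 for 15 min. After fixation, methanol permeabilization and staining, pSTAT6 quantified in CD19+ B cells by flow cytometry; four-parameter fit of inhibition.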

First: CN(C)C(=O)c1cc2ccc(C3=CCCN(C(=O)C4(c5ccccc5)CCC(=O)NC4)C3)cc2[nH]1 (centres unmarked) [Example I-87]
Second: CN(C)C(=O)c1cc2ccc(C3=CCCN(C(=O)C(CO)c4ccccc4)C3)cc2[nH]1 (centres unmarked) [Example I-159]
The IC50 of the first is lower: 10 to 100 µM for the first, greater than 100 µM for the second. The first is the more potent here.

Compared with `CN(C)C(=O)c1cc2ccc(C3=CCCN(C(=O)COc4ccc(C(=O)O)cc4)C3)cc2[nH]1` [Example I-67], `CN(C)C(=O)c1cc2ccc(C3=CCCN(C(=O)Cc4cccnc4O)C3)cc2[nH]1` [Example I-257] is higher in IC50: 10 to 100 µM for the first, greater than 100 µM for the second. The first is the more potent here.

`CN(C)C(=O)c1cc2cc(C3=CCCN(C(=O)CCc4nc5ccccc5s4)C3)ccc2o1` [Example I-237] and `CN(C)C(=O)c1cc2cc(C3=CCCN(C(=O)CCc4ccc5ccccc5c4)C3)ccc2o1` [Example I-266] cannot be ordered by IC50: greater than 100 µM for the first, greater than 100 µM for the second.

First: O=C(CCn1ccnn1)N1CCC=C(c2ccc3cc(C(=O)N4CCCCC4)[nH]c3c2)C1 [Example I-123]
Second: O=C(CCn1ccnn1)N1CCC=C(c2ccc3cc(C(=O)N4CCCC4)[nH]c3c2)C1 [Example I-124]
The IC50 of the first is lower: 10 to 100 µM for the first, greater than 100 µM for the second. The first is the more potent here.

`COC(=O)C1CCC(c2ccc3oc(C(=O)N(C)C)cc3c2)CN1C(=O)CCn1ccnn1` (mixture of isomers) [Example I-2] and `COC(=O)[C@H]1CC[C@@H](c2ccc3oc(C(=O)N(C)C)cc3c2)CN1C(=O)CCn1ccnn1` (single isomer, unassigned) [Example I-151] cannot be ordered by IC50: greater than 100 µM for the first, greater than 100 µM for the second.

First: CN(C)C(=O)c1cc2ccc(C3=CCCN(C(=O)C4CC4F)C3)cc2[nH]1 (centres unmarked) [Example I-322]
Second: CN(C)C(=O)c1cc2ccc(C3=CCCN(C(=O)C4(O)CC4)C3)cc2[nH]1 [Example I-27]
The IC50 of the first is lower: 10 to 100 µM for the first, greater than 100 µM for the second. The first is the more potent here.

`CNC(=O)c1cc2cc(C3=CCCN(C(=O)CCn4ccnn4)C3)ccc2o1` [Example I-236] and `NC(=O)c1cc2cc(C3=CCCN(C(=O)CCn4ccnn4)C3)ccc2o1` [Example I-213] cannot be ordered by IC50: greater than 100 µM for the first, greater than 100 µM for the second.

`CN(C)C(=O)c1cc2cc(C3=CCCN(C(=O)Cn4nnc5ccccc54)C3)ccc2o1` [Example I-254] and `CN(C)C(=O)c1cc2cc(C3=CCCN(C(=O)Cn4ncc5ccccc54)C3)ccc2o1` [Example I-284] cannot be ordered by IC50: greater than 100 µM for the first, greater than 100 µM for the second.

`Cc1c(S(C)(=O)=O)ccc(C(=O)N2CCC=C(c3ccc4cc(C(=O)N(C)C)[nH]c4c3)C2)c1Cl` [Example I-138] and `COCc1oncc1C(=O)N1CCC=C(c2ccc3cc(C(=O)N(C)C)[nH]c3c2)C1` [Example I-145] cannot be ordered by IC50: greater than 100 µM for the first, greater than 100 µM for the second.

First: CNc1ccc(-c2cc(C3=CCCN(C(=O)CCn4ccnn4)C3)cc3[nH]c(C(=O)N(C)C)cc23)c(F)c1 [Example I-115]
Second: CNc1ccc(-c2cc(C3=CCCN(C(=O)CCn4ccnn4)C3)cc3[nH]c(C(=O)N(C)C)cc23)c(OC)c1 [Example I-117]
The IC50 of the first is higher: 1 to 10 µM for the first, less than 0.1 µM for the second.

`CN(C)C(=O)c1cc2cc(C3=CCCN(C(=O)Cc4n[nH]c5ccccc45)C3)ccc2o1` [Example I-302] and `CN(C)C(=O)c1cc2cc(C3=CCCN(C(=O)Cc4cccnc4)C3)ccc2o1` [Example I-275] cannot be ordered by IC50: greater than 100 µM for the first, greater than 100 µM for the second.

`CN(C)C(=O)c1cc2ccc(C3=CCCN(C(=O)c4ccccc4CSc4ccccc4)C3)cc2[nH]1` [Example I-92] and `CN(C)C(=O)c1cc2ccc(C3=CCCN(C(=O)CC(c4ccccc4)c4ccccc4)C3)cc2[nH]1` [Example I-91] fall in the same range of IC50: 10 to 100 µM for the first, 10 to 100 µM for the second.

First: CN(C)C(=O)c1cc2cc(C3=CCCN(C(=O)C4Cc5c(N)cccc5CN4C=O)C3)ccc2o1 (centres unmarked) [Example I-8]
Second: CN(C)C(=O)c1cc2cc(C3=CCCN(C(=O)C4Cc5c(cccc5OCCN)CN4C=O)C3)ccc2o1 (centres unmarked) [Example I-171]
The IC50 of the first is lower: 0.1 to 1 µM for the first, 10 to 100 µM for the second.

First: CN(C)C(=O)c1cc2ccc(C3=CCCN(C(=O)c4cccnc4-c4ccc(F)c(F)c4)C3)cc2[nH]1 [Example I-137]
Second: CN(C)C(=O)c1cc2ccc(C3=CCCN(C(=O)c4cccnc4-c4cc(F)cc(F)c4)C3)cc2[nH]1 [Example I-94]
The IC50 of the first is higher: greater than 100 µM for the first, 10 to 100 µM for the second.

First: COC(=O)c1ccc(CCC(=O)N2CCC=C(c3ccc4cc(C(=O)N(C)C)[nH]c4c3)C2)[nH]1 [Example I-68]
Second: CN(C)C(=O)c1cc2ccc(C3=CCCN(C(=O)CCC(=O)O)C3)cc2[nH]1 [Example I-112]
The IC50 of the first is lower: 10 to 100 µM for the first, greater than 100 µM for the second. The first is the more potent here.

`CN(C)C(=O)c1cc2ccc(C3=CCCN(C(=O)CCc4ccc(C#N)cc4)C3)cc2[nH]1` [Example I-162] and `CN(C)C(=O)c1cc2ccc(C3=CCCN(C(=O)CCc4nnc[nH]4)C3)cc2[nH]1` [Example I-21] cannot be ordered by IC50: greater than 100 µM for the first, greater than 100 µM for the second.

First: CN(C)C(=O)c1cc2cc(C3=CCCN(C(=O)CCn4ccnn4)C3)cc(-c3ccc(O)cc3)c2o1 [Example I-205]
Second: COC(=O)c1cnn(-c2cc(C3=CCCN(C(=O)CCn4ccnn4)C3)cc3cc(C(=O)N(C)C)oc23)c1 [Example I-186]
The IC50 of the first is lower: 0.1 to 1 µM for the first, greater than 100 µM for the second.

`CN(C)C(=O)c1cc2cc(C3=CCCN(C(=O)Cn4ccnc4)C3)ccc2o1` [Example I-311] and `CN(C)C(=O)c1cc2cc(C3=CCCN(C(=O)CCc4cnccn4)C3)ccc2o1` [Example I-216] cannot be ordered by IC50: greater than 100 µM for the first, greater than 100 µM for the second.

First: CN(C)C(=O)c1cc2ccc(C3=CCCN(C(=O)CCCn4c(=O)[nH]c5ccccc54)C3)cc2[nH]1 [Example I-85]
Second: CN(C)C(=O)c1cc2ccc(C3=CCCN(C(=O)C(O)Cc4ccccc4)C3)cc2[nH]1 (centres unmarked) [Example I-51]
The IC50 of the first is higher: greater than 100 µM for the first, 10 to 100 µM for the second.

`CN(C)C(=O)c1cc2ccc(C3=CCCN(C(=O)c4n[nH]cc4I)C3)cc2[nH]1` [Example I-33] and `CN(C)C(=O)c1cc2ccc(C3=CCCN(C(=O)c4[nH]nc5c4CS(=O)(=O)C5)C3)cc2[nH]1` [Example I-57] fall in the same range of IC50: 10 to 100 µM for the first, 10 to 100 µM for the second.

First: CN(C)C(=O)c1cc2ccc(C3=CCCN(C(=O)C(CC4CC4)N4Cc5ccccc5C4=O)C3)cc2[nH]1 (centres unmarked) [Example I-104]
Second: CC(Oc1ccccn1)C(=O)N1CCC=C(c2ccc3cc(C(=O)N(C)C)[nH]c3c2)C1 (centres unmarked) [Example I-54]
The IC50 of the first is higher: greater than 100 µM for the first, 10 to 100 µM for the second.

Compared with `CN(C)C(=O)c1cc2ccc(C3=CCCN(C(=O)CCn4ccnn4)C3)c(F)c2[nH]1` [Example I-304], `CN(C)C(=O)c1cc2cc(C3=CCCN(C(=O)CCn4ccnn4)C3)ncc2[nH]1` [Example I-224] is higher in IC50: less than 0.1 µM for the first, 10 to 100 µM for the second. The first is the more potent here.

`CC(=O)N1CCc2ccc(CC(=O)N3CCC=C(c4ccc5oc(C(=O)N(C)C)cc5c4)C3)cc2C1` [Example I-193] and `CC(=O)N1CCc2ccccc2[C@@H]1C(=O)N1CCC=C(c2ccc3oc(C(=O)N(C)C)cc3c2)C1` (single isomer, unassigned) [Example I-177] cannot be ordered by IC50: greater than 100 µM for the first, greater than 100 µM for the second.

`CN(C)C(=O)c1nc2cc(C3=CCCN(C(=O)CCc4ccccn4)C3)ccc2[nH]1` [Example I-199] and `CN(C)C(=O)c1nc2cc(C3=CCCN(C(=O)CCn4ccnn4)C3)ccc2[nH]1` [Example I-234] cannot be ordered by IC50: greater than 100 µM for the first, greater than 100 µM for the second.

`CN(C)C(=O)c1cc2ccc(C3=CCCN(C(=O)C4CCCS4(=O)=O)C3)cc2[nH]1` (centres unmarked) [Example I-40] and `CN(C)C(=O)c1cc2ccc(C3=CCCN(C(=O)C4(O)CCCC4)C3)cc2[nH]1` [Example I-32] fall in the same range of IC50: 10 to 100 µM for the first, 10 to 100 µM for the second.

`Cc1nc(-c2ccccc2F)c(C(=O)N2CCC=C(c3ccc4cc(C(=O)N(C)C)[nH]c4c3)C2)o1` [Example I-89] and `CN(C)C(=O)c1cc2ccc(C3=CCCN(C(=O)c4cc(=O)c(OCc5ccccc5)c[nH]4)C3)cc2[nH]1` [Example I-110] cannot be ordered by IC50: greater than 100 µM for the first, greater than 100 µM for the second.

`CC1CCCN(C(=O)c2cc3ccc(C4=CCCN(C(=O)CCn5ccnn5)C4)cc3[nH]2)C1` (centres unmarked) [Example I-127] and `O=C(CCn1ccnn1)N1CCC=C(c2ccc3oc(C(=O)N4CCCCC4)cc3c2)C1` [Example I-128] fall in the same range of IC50: 10 to 100 µM for the first, 10 to 100 µM for the second.

`COC(=O)C1CCC(c2ccc3oc(C(=O)N(C)C)cc3c2)CN1C(=O)CCn1ccnn1` (centres unmarked) [Example I-149] and `CN(C)C(=O)c1cc2cc(C3CCC(CO)N(C(=O)CCn4ccnn4)C3)ccc2o1` (centres unmarked) [Example I-154] cannot be ordered by IC50: greater than 100 µM for the first, greater than 100 µM for the second.

First: CN(C)C(=O)c1cc2ccc(C3=CCCN(C(=O)CCc4nn[nH]n4)C3)cc2[nH]1 [Example I-15]
Second: CN(C)C(=O)c1cc2ccc(C3=CCCN(C(=O)CNC(=O)c4cccc(C(F)(F)F)c4)C3)cc2[nH]1 [Example I-101]
The IC50 of the first is lower: 10 to 100 µM for the first, greater than 100 µM for the second. The first is the more potent here.

`CN(C)C(=O)c1cc2cc(C3=CCCN(C(=O)C4c5ccccc5CCN4C)C3)ccc2o1` (centres unmarked) [Example I-208] and `CCC(=O)N1Cc2ccccc2CC1C(=O)N1CCC=C(c2ccc3oc(C(=O)N(C)C)cc3c2)C1` (centres unmarked) [Example I-188] cannot be ordered by IC50: greater than 100 µM for the first, greater than 100 µM for the second.

`CN(C)C(=O)c1cc2cc(C3=CCCN(C(=O)CCc4ccc5c(c4)OCO5)C3)ccc2o1` [Example I-282] and `CN(C)C(=O)c1cc2cc(C3=CCCN(C(=O)Cc4ccc5ncnn5c4)C3)ccc2o1` [Example I-286] cannot be ordered by IC50: greater than 100 µM for the first, greater than 100 µM for the second.

First: COc1ccc(Cn2cc(CC(=O)N3CCC=C(c4ccc5cc(C(=O)N(C)C)[nH]c5c4)C3)cn2)cc1 [Example I-136]
Second: CN(C)C(=O)c1cc2ccc(C3=CCCN(C(=O)Cc4cccc(OCc5ccccc5)c4)C3)cc2[nH]1 [Example I-107]
The IC50 of the first is higher: greater than 100 µM for the first, 0.1 to 1 µM for the second. The second is the more potent here.

`CN(C)C(=O)c1ccc2c(C3=CCCN(C(=O)CCn4ccnn4)C3)c[nH]c2c1` [Example I-317] and `CN(C)C(=O)c1cn2cc(C3=CCCN(C(=O)CCn4ccnn4)C3)ccc2n1` [Example I-241] cannot be ordered by IC50: greater than 100 µM for the first, greater than 100 µM for the second.

`CN(C)C(=O)c1cc2cc(C3=CCCN(C(=O)[C@H](N)Cn4ccnn4)C3)ccc2o1` (single isomer, unassigned) [Example I-174] and `CN(C)C(=O)c1cc2cc(C3=CCCN(C(=O)[C@@H](N)Cn4ccnn4)C3)ccc2o1` (single isomer, unassigned) [Example I-173] cannot be ordered by IC50: greater than 100 µM for the first, greater than 100 µM for the second.

First: C[C@H](Cn1ccnn1)C(=O)N1CCC=C(c2ccc3oc(C(=O)N(C)C)cc3c2)C1 (single isomer, unassigned) [Example I-228]
Second: CCN[C@H](Cn1ccnn1)C(=O)N1CCC=C(c2ccc3oc(C(=O)N(C)C)cc3c2)C1 [Example I-169]
The IC50 of the first is lower: 10 to 100 µM for the first, greater than 100 µM for the second. The first is the more potent here.

`CCC(=O)N1Cc2ccccc2CC1C(=O)N1CCC=C(c2ccc3oc(C(=O)N(C)C)cc3c2)C1` (centres unmarked) [Example I-189] was tested, and the IC50 was greater than 100 µM.

Source: patent US20250214977A1, “STAT6 INHIBITORS AND USES THEREOF” (Kymera Therapeutics, Inc., priority 2024, published 2025)
